Data taken from patent US20220031825A1, “IMM[…] AND VACCINE COMPOSITION INCLUDING STING AGONIST” (priority 2018, published 2022).

What was measured:
[1] = test system: spleen and lung cells; experiment: Type and number of memory T cells in spleen and lung (flow cytometry); assay type: in vivo, mouse; settings: both spleen and lung cells of immunized mice; compared with MPL as adjuvant; FIG. 1D
Source text: In general, when infected with Mycobacterium tuberculosis, Mycobacterium tuberculosis antigen-specific T cells replicate and differentiate to become effector T cells. When the immune response disappears, most of these effector T cells die, and some form long-lasting memory T cells. It is known that the memory T cells thus formed play a critical role in the formation of a rapid acquired defense immunity and maintenance of the memorization of T cells. […] For the experiment, the spleen and lung cells of the mouse obtained in the same manner as in Example 1.2 were washed twice with PBS and then centrifuged. The centrifuged cells were treated with anti-CD3-BV421 (BD Bioscience), anti-CD4-PerCP-Cy5.5 (BD Bioscience), anti-CD8-APC-Cy7 (BD Bioscience), anti-CD44-PE (Ebioscience), anti-CD62L-FITC (Ebioscience), anti-CD127-APC (Ebioscience), etc. Then, they were reacted at 4° C. for 30 minutes. After the reaction was completed, cells were washed several times with PBS to remove unbound antibody, and then effector T cells (Teff; CD3^+CD4^+CD62L^−CD44+CD127^−), effector/memory T cells (Tem; CD3^+CD4^+CD62L^−CD44^+CD127^+), central memory T cells (Tcm; CD3^+CD4^+CD62L^+CD44^+CD127^+), and naive T cells (Naive; CD3^+CD4^+CD62L^+CD44^−CD127^+) were analyzed by using flow cytometer (FACS verse, BD).

[2] = test system: spleen and lung cells; experiment: Antigen-specific multifunctional T cells after ESAT-6 stimulation (flow cytometry); settings: mouse, in vivo

| Compound | effector/memory T of CD4+/CD8+ [1] | T cells secreting all three types of cytokines IFN-γ, TNF-α and IL-2 [2] |
| --- | --- | --- |
| Nc1nc2c(ncn2[C@@H]2O[C@@H]3COP(=O)(O)O[C@H]4[C@@H](O)[C@H](n5cnc6c(=O)[nH]c(N)nc65)O[C@@H]4COP(=O)(O)O[C@H]3[C@H]2O)c(=O)[nH]1 [c-di-GMP, cyclic diguanylate] | significant increase | increased |
| monophosphoryl lipid A [MPL] | – | increased |
